Where a name gives a salt, the structure may show the parent alone.
Assay: Solubility in water at 40° C. (visual or UV-spectrometry)
Assay type: physicochemical
Conditions: kept overnight, 500 ppm 4OH-TEMPO
Experimental: The solubility of the compounds of Formula (I) was determined visually or by UV-spectrometry. For each compound of Formula (I), three solutions were prepared at 40° C.: one solution at 30 wt %, one solution at 60 wt %, and one solution at 70 wt %. 500 ppm 4OH-TEMPO was included in all three solutions to prevent premature polymerisation. The solutions were kept in a water bath of 40° C. overnight and centrifuged prior inspection. UV spectra were recorded in a Cary™ 100 UV-visible spectrophotometer from Agilent Technologies using a 1 mm path length quartz cuvette.

| Solubility in water at 40° C. | Molecule |
| --- | --- |
| 56 wt % | C=Cc1ccc(S(=O)(=O)NS(=O)(=O)c2ccc(C=C)cc2)cc1 [XL-B, Benzenesulphonamide, 4-ethenyl-N-[(4-ethenylphenyl)sulphonyl]-, lithium salt] |
| >70 wt % | C=Cc1ccc(S(=O)(=O)NS(C)(=O)=O)c(C=C)c1 [XL-D, Benzenesulphonamide, 2,4-diethenyl-N-(methylsulphonyl)-, lithium salt] |
| >70 wt % | C=Cc1ccc(S(=O)(=O)[N-]S(=O)(=O)c2cccc(S(=O)(=O)[N-]S(=O)(=O)c3ccc(C=C)cc3)c2)cc1.[Li+].[Li+] [XL-2, 1,3-[N-(ethenylphenylsulphonyl)benzenesulphonamide], dilithium salt] |

| Molecule | Solubility in water at 40° C. |
| --- | --- |
| Divinylbenzenesulphonate, Sodium salt [DVBS-Na, reference compound] | 8 wt % |
